From paper PMC12428610, “Gas-Binding Studies of Class 1 Sugar Beet Phytoglobin and C86A Mutant Using Isothermal Spectral Shifts in High-Precision Microliter Assay” (International Journal of Molecular Sciences, 2025)
Values joined by “and” are separate entries in the source; they are usually repeats but may differ in a detail not shown here. Equal entries are not always repeated. Where two headings read alike, the source gives them in different places.

Columns and labels:
[1] = target: BvPgb 1.2 C86A mutant; assay: Isothermal spectral shift (SpS) gas-binding titration, Monolith X, RED-NHS-labeled protein; design: species or system Beta vulgaris
From the text: (§1) The microscale capillary-based technology described here employs isothermal spectral shift (SpS). SpS has previously primarily been used for the determination of protein–protein interactions. In this study, we examine the possibility to extend the use of this technique to also include the binding of small ligands, like gases, to proteins. Ligand binding induces shifts in fluorescence spectra (blue- or red-shifts), which are detectable under isothermal conditions via dual-wavelength fluorescence detection at 650 nm and 670 nm. By plotting fluorescence intensity ratios (670/650 nm) against ligand concentration, the SpS-derived KD can be obtained. Our goal is to determine KD or half maximal effective concentrations (EC50) from ligand titration series. Here, we present a streamlined microscale method employing fluorophore-labeled proteins in gas-saturated microscale capillaries.
(§2) The proteins were thus incubated in solutions enriched with either CO or dissolved NONOate, utilizing a loading buffer (PBS-T20) to maintain gas saturation. Subsequent titrations of gas-enriched solutions yielded clear, reproducible dose–response curves.
(§3) All SpS measurements conducted in this study were performed using the Monolith X instrument (NanoTemper Technologies GmbH, München, Germany), which is equipped with dual-emission detection optics. The MO.Control 2software (NanoTemper Technologies GmbH) was used to calculate fluorescence intensity ratios at 670 and 650 nm. KD values were determined by fitting dose–response curves to a binding model that follows the law of mass action with a 1:1 interaction stoichiometry. This model defines the bound fraction, f(cL), at equilibrium for a given ligand concentration, cL, as given by Equation (1):(1) fcL=cL+cT+KD−cL+cT+KD^2−4cLcT/2cT where cT is the final concentration of target in the assay. The KD is estimated by fitting Equation (1) with the ratiometric expression seen in Equation (2):(2) RcL=Rf+fcL·Rb−Fb/Ff·Rf/1+fcL·Fb/Ff−1 where R(cL) represents the 670 nm/650 nm ratio at a given cL, Rf corresponds to the ratio of the free target, and Rb corresponds to the bound complex. The parameters Fb and Ff, derived from the sigmoidal dose–response curve fitting of the […], adjust for ligand-induced changes in fluorescence intensity at 650 nm.
(§4) Covalent labeling of primary amines was performed using the Protein Labeling Kit RED-NHS 2nd Generation (cat# MO-L011; NanoTemper Technologies GmbH). The assay buffer (PBS-T20) was prepared by supplementing degassed PBS pH 7.4 (cat# 21-040-CV; Corning, NY, USA) with 0.05% Tween20. Purified proteins in Tris were subjected to buffer exchange using the A-column prior to labeling. Briefly, a twofold molar excess of dye was added to the protein prepared to a final concentration of 20 µM. Proteins and dye were incubated for 30 min at room temperature in the dark to avoid photobleaching. Free dye was removed from the labeled protein using the provided B-column. Labeled proteins were kept in the dark and on ice awaiting capillary loading.
(§5) A working 1 mM CO solution was prepared by sparging PBS-T20 with CO, with the concentration approximated through Henry’s law for CO dissolvability in water (kH(CO) ≈ 0.001 mol l^−1 bar^−1). A working 2 mM NO solution (kH(NO) ≈ 0.002 mol l^−1 bar^−1) was prepared by dissolving 25 mg of NONOate (cat# D184-25MG; Merck, Darmstadt, Germany) in 15 mL of PBS-T20 to obtain a 10.75 mM solution, which provides a 10-molar excess of saturation upon decomposition. The NONOate PBS-T20 solution was gently agitated to create a gas-buffer zone to capture decomposing NONOate. Ligand solutions were prepared as 16-point serial dilutions of 10 µL in PCR-strip tubes, before being mixed by means of aspiration with 10 µL of labeled protein and incubated for 5 min. […]

[2] = target: BvPgb 1.2 recombinant wild type (rWT); assay: as above; design: species or system Beta vulgaris
From the text: as §1, §2, §3, §4, §5

[3] = target: BvPgb 1.2; assay: Flash photolysis and stopped-flow rapid mixing; KD calculated per Equation (3); assay type: binding, Beta vulgaris; conditions: rWT, calculated per Equation (3) KD,obs=koff(1+KH)/kon from kinetic parameters of ref 30
From the text: Our obtained results are consistent with KD values derivable from earlier work, where kinetic parameters for BvPgb 1.2 were obtained using stopped-flow rapid mixing and flash photolysis, allowing the calculation of a single apparent KD per gas. While not explicitly reported, KD can be estimated from those data using Equation (3):(3) KD,obs=koff(1+KH)/kon where KH is the hexacoordination equilibrium constant and the (1 + KH) factor is used to account for the “penalty” imposed by the hexacoordinated fraction. […] The additional lower KD or EC50 for CO (400–500 nM) observed with our method likely reflects the contribution of the closed protein form, consistent with the 100–1000-fold kinetic differences reported in [27, 28, 29].

[4] = PBS-T20 pH 7.4, NO from NONOate, read-out: KD(NO), Isothermal Spectral Shift
[5] = text and figure legend, read-out: KD, NO binding
[6] = first transition of biphasic dose-response, read-out: EC50, CO binding, first transition
[7] = second transition of biphasic dose-response, read-out: EC50, CO binding, second transition

Row | Compound | Kd [1, 4] [nM] | Kd [1, 5] | Kd [2, 4] [nM] | Kd [2, 5] | Kd ([3]; read-out: KD(NO), Flash Photolysis and Stopped-Flow Rapid Mixing) [nM] | KD(CO, closed) /EC50,2, Isothermal Spectral Shift ([1]; PBS-T20 pH 7.4) [nM] | KD(CO, open) /EC50,1, Isothermal Spectral Shift ([1]; PBS-T20 pH 7.4) [nM] | EC50 [1, 6] [nM] | EC50 [1, 7] [nM] | KD(CO, closed) /EC50,2, Isothermal Spectral Shift ([2]; PBS-T20 pH 7.4) [nM] | KD(CO, open) /EC50,1, Isothermal Spectral Shift ([2]; PBS-T20 pH 7.4) [nM] | EC50 [2, 6] [nM] | EC50 [2, 7] [nM] | Kd ([3]; read-out: KD(CO, open), Flash Photolysis and Stopped-Flow Rapid Mixing) [nM]
1 | nitric oxide [NO] | 400 ± 100 | 400 nM and ~400 nM | 1600 ± 100 | 1600 nM and ~1600 nM | ~6400 |  |  |  |  |  |  |  |  | 
2 | [C-]#[O+] [CO, carbon monoxide] |  |  |  |  |  | 500 ± 200 | 400000 ± 300000 | ~500 | ~400000 | 400 ± 100 | 700000 ± 200000 | ~400 | ~700000 | ~100000
